Source: the supplement of paper PMC10331698
± gives the standard deviation of the averaged measurements.

Experiments:
Assay in all cases: level (log10 ratio to DMSO vehicle control); higher = higher biomarker level / cell amount than vehicle control
[1] = compound: O=S(=O)(Cl)C(F)(F)C(F)(F)C(F)(F)C(F)(F)C(F)(F)C(F)(F)C(F)(F)C(F)(F)F [Perfluoro-1-octanesulfonyl chloride]; settings: in DMSO
Experimental: (§1)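 BioMAP Diversity Plus panel of 12 human primary cell co-culture systems (3C, 4H, LPS, SAg, BT, BF4T, BE3C, CASM3C, HDF3CGF, KF3CT, MyoF, Mphg). Compounds were added 1 h before stimulation and left for 24 h (MyoF 48 h; BT 72 h for soluble read-outs or 6 d for IgG). Biomarkers were read by ELISA, cytotoxicity by SRB, PBMC viability and proliferation by Alamar Blue. Each well value was divided by the mean of 8 DMSO control wells on the same plate and log10 transformed; duplicate blinded samples were tested at 4 concentrations.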

[2] = compound: FC(F)(F)C(F)(F)C(F)(F)CC1CO1 [1H,1H-Heptafluorobutyl epoxide]; settings: in DMSO
Experimental: as §1

Heptafluorobutyl iodide = compound: FC(F)(F)C(F)(F)C(F)(F)CI [Heptafluorobutyl iodide]; settings: in DMSO
Experimental: as §1

Nonafluoropentanamide = compound: NC(=O)C(F)(F)C(F)(F)C(F)(F)C(F)(F)F [Nonafluoropentanamide]; settings: in DMSO
Experimental: as §1

[3] = compound: C=CC(=O)OCC(F)(F)C(F)(F)C(F)(F)COC(=O)C=C [1H,1H,5H,5H-Perfluoro-1,5-pentanediol diacrylate]; settings: 6700 nM; in DMSO
Experimental: as §1

[4] = compound: FC(F)(F)C(F)(F)C(F)(F)C(F)(F)C(F)(F)C(F)(F)CC1CO1 [3-(Perfluorohexyl)-1,2-epoxypropane]; settings: in DMSO
Experimental: as §1

[5] = compound: C=C(C)C(=O)OCCC(F)(F)C(F)(F)C(F)(F)C(F)(F)C(F)(F)C(F)(F)F [6:2 Fluorotelomer methacrylate]; settings: in DMSO
Experimental: as §1

Test System	level (log10) ([1]; 6700 nM)	level (log10) ([1]; 20000 nM)	level (log10) ([1]; 60000 nM)	level (log10) ([2]; 6700 nM)	level (log10) ([2]; 20000 nM)	level (log10) ([2]; 60000 nM)	level (log10) (Heptafluorobutyl iodide; 6700 nM)	level (log10) (Heptafluorobutyl iodide; 20000 nM)	level (log10) (Heptafluorobutyl iodide; 60000 nM)	level (log10) (Nonafluoropentanamide; 6700 nM)	level (log10) (Nonafluoropentanamide; 20000 nM)	level (log10) (Nonafluoropentanamide; 60000 nM)	level (log10) [3]	level (log10) ([4]; 6700 nM)	level (log10) ([4]; 20000 nM)	level (log10) ([4]; 60000 nM)	level (log10) ([5]; 6700 nM)	level (log10) ([5]; 20000 nM)	level (log10) ([5]; 60000 nM)
LPS:CD69	-0.0255 ± 0.069	-0.032 ± 0.0071	-0.047 ± 0.052	-0.012 ± 0.031	-0.0365 ± 0.029	0.0095 ± 0.018	-0.0635 ± 0.011	-0.054 ± 0.013	-0.021 ± 0.048	-0.0545 ± 0.046	-0.042 ± 0.05	-0.001 ± 0.025	-0.0365 ± 0.036	-0.024 ± 0.013	-0.0225 ± 0.015	-0.0195 ± 0.0078	-0.0355 ± 0.019	-0.0095 ± 0.026	0.0175 ± 0.053
BE3C:CXCL10/IP-10	-0.0275 ± 0.0064	-0.165 ± 0.033	-0.927 ± 0.04	-0.013 ± 0.0071	-0.0065 ± 0.0092	-0.012 ± 0.0042	-0.0015 ± 0.0064	-0.005 ± 0.0057	0.005 ± 0.013	0.0145 ± 0.021	-0.005 ± 0.038	-0.0095 ± 0.015	-0.0215 ± 0.0035	0.001 ± 0.0057	0.001 ± 0.017	0.018 ± 0.0014	0.0275 ± 0.091	0.021 ± 0.068	0.034 ± 0.078
BF4T:CXCL8/IL-8	0.002 ± 0.024	0.0225 ± 0.012	-0.009 ± 0.018	0.023 ± 0.041	0.0165 ± 0.03	0.0325 ± 0.05	0.0085 ± 0.029	0.061 ± 0.11	0.0505 ± 0.063	0.055 ± 0.021	0.028 ± 0.057	0.0235 ± 0.088	-0.0315 ± 0.037	0.013 ± 0.02	-0.02 ± 0.028	0.0075 ± 0.0064	0.032 ± 0.061	0.028 ± 0.037	0.0435 ± 0.033
BE3C:IL-1alpha	0.015 ± 0.0042	0.0155 ± 0.0092	-0.523 ± 0.1	0.024 ± 0.024	0.01 ± 0.051	0.0265 ± 0.066	0.0015 ± 0.037	-0.0225 ± 0.019	-0.001 ± 0.014	-0.002 ± 0.0071	0.002 ± 0.014	0.0105 ± 0.00071	-0.0415 ± 0.03	-0.0215 ± 0.0021	-0.003	0 ± 0.0014	0.0025 ± 0.016	-0.0125 ± 0.0035	0.003
BT:B cell Proliferation	0.01 ± 0.044	0.0345 ± 0.013	0.101 ± 0.011	-0.021 ± 0.038	0.008 ± 0.033	-0.008 ± 0.034	0.021 ± 0.021	0.015 ± 0.0071	0.021 ± 0.0042	0.032 ± 0.0028	-0.023 ± 0.0042	0.0085 ± 0.0092	-0.24 ± 0.052	0.0065 ± 0.026	0.0035 ± 0.0035	-0.01 ± 0.0085	-0.0325 ± 0.043	-0.0255 ± 0.021	-0.008
BF4T:PAI-I	-0.001 ± 0.0085	-0.015 ± 0.0099	-0.17 ± 0.0078	-0.0035 ± 0.011	-0.007 ± 0.0057	-0.02 ± 0.0014	0.0005 ± 0.0092	-0.002 ± 0.0042	0.0065 ± 0.021	-0.0145 ± 0.0064	-0.0055 ± 0.0035	0.0015 ± 0.021	-0.0285 ± 0.00071	0.003 ± 0.0085	0.007	0.007 ± 0.018	-0.0175 ± 0.011	-0.007 ± 0.0042	-0.0075 ± 0.0035
LPS:CD106/VCAM-1	-0.018 ± 0.0071	-0.0065 ± 0.0092	-0.022 ± 0.02	0.01 ± 0.017	0.0125 ± 0.0064	0.002 ± 0.0071	-0.0355 ± 0.0092	-0.001 ± 0.018	-0.0485 ± 0.054	-0.0075 ± 0.028	-0.0135 ± 0.005	0.0035 ± 0.011	-0.118 ± 0.071	-0.002 ± 0.011	-0.0235 ± 0.015	-0.022 ± 0.017	0.0165 ± 0.0092	-0.0025 ± 0.021	0.0055 ± 0.018
BE3C:CD87/uPAR	0.0825 ± 0.025	0.0795 ± 0.0064	-0.276 ± 0.052	0.0105 ± 0.0092	-0.004 ± 0.024	-0.004 ± 0.023	0.0115 ± 0.033	-0.0435 ± 0.016	-0.001 ± 0.0057	0.012	0.0185 ± 0.015	0.0115 ± 0.018	0.0195 ± 0.0064	0.0085 ± 0.029	0.032 ± 0.037	0.06 ± 0.0028	-0.047 ± 0.027	-0.0335 ± 0.019	-0.0305 ± 0.028
LPS:SRB	0.0035 ± 0.0035	0.005 ± 0.0028	-0.043 ± 0.023	0.0085 ± 0.013	0.002	-0.005 ± 0.0071	-0.0035 ± 0.0021	-0.0095 ± 0.0021	0.0045 ± 0.021	0.0015 ± 0.011	-0.0065 ± 0.005	-0.003 ± 0.0042	-0.02 ± 0.0042	-0.0045 ± 0.0035	-0.003	-0.002 ± 0.0057	-0.003 ± 0.0042	-0.0035 ± 0.0064	-0.0025 ± 0.00071
SAg:CXCL9/MIG	-0.007 ± 0.0071	-0.018 ± 0.0028	0.0075 ± 0.021	-0.0155 ± 0.0078	-0.0165 ± 0.015	-0.0065 ± 0.018	-0.007 ± 0.0028	-0.0025 ± 0.0021	-0.0085 ± 0.0092	0.003 ± 0.014	-0.0035 ± 0.013	0.0185 ± 0.015	0.0025 ± 0.0078	0.008 ± 0.0085	0.006 ± 0.0057	0.002 ± 0.0042	0.007 ± 0.023	0.0085 ± 0.011	0.012 ± 0.025
BF4T:MMP-9	0.0055 ± 0.0078	0.0065 ± 0.021	-0.314 ± 0.083	0.0005 ± 0.011	-0.0055 ± 0.022	-0.008 ± 0.0085	-0.008 ± 0.0085	-0.018 ± 0.013	0.0025 ± 0.03	-0.026 ± 0.068	-0.051 ± 0.016	0.004 ± 0.017	-0.02 ± 0.021	0.001 ± 0.0071	0.005 ± 0.0071	0.023 ± 0.04	-0.0295 ± 0.096	-0.033 ± 0.028	-0.028 ± 0.062
LPS:IL-1alpha	0.0255 ± 0.018	-0.0115 ± 0.039	-0.063 ± 0.12	-0.027 ± 0.023	-0.0115 ± 0.023	0.0085 ± 0.022	0.019 ± 0.11	0.0205 ± 0.023	0.0485 ± 0.029	-0.1 ± 0.011	-0.102 ± 0.0099	-0.0555 ± 0.0092	-0.078 ± 0.038	0.003 ± 0.018	0.012 ± 0.041	0.028 ± 0.027	-0.0225 ± 0.079	-0.0355 ± 0.022	0.052 ± 0.0042
LPS:CD40	-0.0175 ± 0.081	-0.0145 ± 0.042	-0.027 ± 0.0042	0.0165 ± 0.054	0.0105 ± 0.053	0.026 ± 0.024	-0.045 ± 0.018	-0.0035 ± 0.013	0.001 ± 0.0057	0.002 ± 0.038	-0.008 ± 0.068	0.0015 ± 0.035	-0.209 ± 0.024	-0.0115 ± 0.012	0.01 ± 0.014	-0.0045 ± 0.015	-0.022 ± 0.045	-0.04 ± 0.024	-0.0335 ± 0.11
LPS:CD62E/E-Selectin	-0.0105 ± 0.0078	-0.0095 ± 0.00071	0.0585 ± 0.016	0.0105 ± 0.012	-0.009 ± 0.016	0.0035 ± 0.036	0.005 ± 0.1	-0.013 ± 0.0028	0.026 ± 0.068	0.003 ± 0.0042	0.0175 ± 0.005	0.0215 ± 0.029	-0.0265 ± 0.022	-0.0055 ± 0.029	0 ± 0.0042	0.0165 ± 0.026	0.0095 ± 0.018	0.003 ± 0.018	0.0335 ± 0.0064
SAg:CD69	-0.011 ± 0.0099	-0.049 ± 0.04	-0.0795 ± 0.049	0.0115 ± 0.00071	0.009 ± 0.0014	0 ± 0.031	-0.0425 ± 0.043	-0.045 ± 0.03	-0.032 ± 0.037	-0.0095 ± 0.013	-0.025 ± 0.0085	-0.008 ± 0.0042	-0.181 ± 0.073	0.013 ± 0.0042	0.011 ± 0.011	0.0035 ± 0.00071	-0.001 ± 0.0014	-0.0035 ± 0.00071	-0.013 ± 0.024
